According to patent US9050378B2, “N2S2 chelate-targeting ligand conjugates” (Board of Regents, The University of Texas System, priority 2003, dated 2015):
Ends that are not written are not given here.

Key:
[1] = system: A549 human lung cancer tumor; test: Tissue distribution in lung tumor-bearing nude mice; type: in vivo
Method: Female athymic nude mice (NCr-nu/nu, NCI, Bethasda, Md.) were inoculated with human lung cancer cells (A549 tumor cell line, 3×10^6 cells/mouse, intramuscular) by one author in the mid-dorsal region. After the tumor reached 6 mm, separate biodistribution studies using ^99mTc-EC-DG and 18F-FDG were conducted. Each received ^99mTc-EC-DG or 18F-FDG intravenously (n=3/time point). The injection activity was 1-3 μCi/mouse. The injected mass of ^99mTc-EC-DG was 0.2 mg/rodent.

[2] = In vitro cell culture of ^99mTc-EC-DG with or without transition chelators; type: cell-based
Description: It may also be important to include an antioxidant and a transition chelator in the composition to prevent oxidation of the ethylenedicysteine. For example, the antioxidant may be vitamin C (ascorbic acid). However, other antioxidants known to those of ordinary skill in the art, such as tocopherol, pyridoxine, thiamine, or rutin, may also be used. Any transition chelator known to those of ordinary skill in the art may be used in conjunction with the present invention. Examples of transition chelators include glucoheptonate, gluconate, glucarate, citrate, and tartarate.

[3] = system: RBA CRL-1747 mammary tumor; test: Biodistribution in breast (mammary) tumor-bearing rats; type: in vivo, rat; details: iv
Method: (§1) Biodistribution was assessed in mammary tumor-bearing rats (RBA CRL-1747, n=3/time interval, iv). Studies were performed 14 to 17 days after implantation when tumors reached approximately 1 cm in diameter. Following administration of the radiotracer, rats were sacrificed at 0.5-4 hrs. The selected tissues were excised, weighed and counted for radioactivity by using a gamma counter (Packard Instruments, Downers Grove, Ill.). The biodistribution of tracer in each sample was calculated as percentage of the injected dose per gram of tissue wet weight (% ID/g).
as §1, with “breast” for “mammary”

[4] = system: RBA CRL-1747 (breast cancer cells); test: In vitro cellular uptake compared to ^99mTc-EC in breast cancer cells; type: cell-based, rat; details: 0.5-2 hrs
Method: An in vitro cell culture using tumor cells was incubated with ^99mTc-EC-celecoxib (4 μCi/50,000 cells/well) at 0.5-2 hrs in RBA CRL-1747.
An in vitro cell culture using tumor cells was incubated with ^99mTc-EC-LH antibody (4 μCi/50,000 cells/well) at 0.5-2 hrs in RBA CRL-1747 (breast cancer cells).
An in vitro cell culture using tumor cells was incubated with ^99mTc-EC-carnitine (4-6 μCi/50,000 cells/well) at 0.5-2 hrs in breast cancer cells.

[5] = system: human prostate cancer cells (LNCap, PC-3); test: In vitro cellular uptake in human prostate cancer cells; type: cell-based; details: 0.5-2 hrs, LNCap and PC-3
Method: An in vitro cell culture using tumor cells was incubated with ^99mTc-EC-LHRH (4-6 μCi/100,000 cells/well) at 0.5-2 hrs in human prostate cancer cells. Two types cell lines were used. They are either sensitive to androgen (LNCap) or unresponsive to androgen (PC-3) therapy.

For `O=C(N[C@H]1C(O)O[C@H](CO)[C@@H](O)[C@@H]1O)[C@@H]1C[S][Tc]23(=[O])[S]C[C@@H](C(=O)N[C@H]4C(O)O[C@H](CO)[C@@H](O)[C@@H]4O)[N]2CC[N]13` (some centres unmarked) [^99mTc-EC-DG], the Blood ([1]; 30 min) was 1.607 ± 0.389 % of injected dose per gram of tissue weight, the Brain ([1]; 30 min) was 0.058 ± 0.008 % of injected dose per gram of tissue weight and the Heart ([1]; 30 min) was 0.611 ± 0.193 % of injected dose per gram of tissue weight. The Intestine ([1]; 30 min) was 0.510 ± 0.093 % of injected dose per gram of tissue weight, the Kidney ([1]; 30 min) was 6.726 ± 1.842 % of injected dose per gram of tissue weight and the Liver ([1]; 30 min) was 5.674 ± 2.089 % of injected dose per gram of tissue weight. The Lung ([1]; 30 min) was 1.048 ± 0.259 % of injected dose per gram of tissue weight, the Muscle ([1]; 30 min) was 0.264 ± 0.072 % of injected dose per gram of tissue weight and the Spleen ([1]; 30 min) was 3.240 ± 1.709 % of injected dose per gram of tissue weight. For the same molecule, the Stomach ([1]; 30 min) was 0.540 ± 0.113 % of injected dose per gram of tissue weight, the Thyroid ([1]; 30 min) was 0.929 ± 0.212 % of injected dose per gram of tissue weight and the Tumor ([1]; 30 min) was 0.787 ± 0.163 % of injected dose per gram of tissue weight. The Tumor/Blood ([1]; 30 min) was 0.499 ± 0.022, the Tumor/Lung ([1]; 30 min) was 0.769 ± 0.047 and the Tumor/Muscle ([1]; 30 min) was 3.352 ± 0.749. For the same molecule, the Blood ([1]; 2 h) was 0.977 ± 0.267 % of injected dose per gram of tissue weight, the Brain ([1]; 2 h) was 0.042 ± 0.006 % of injected dose per gram of tissue weight and the Heart ([1]; 2 h) was 0.336 ± 0.080 % of injected dose per gram of tissue weight. The Intestine ([1]; 2 h) was 0.417 ± 0.110 % of injected dose per gram of tissue weight, the Kidney ([1]; 2 h) was 5.687 ± 1.540 % of injected dose per gram of tissue weight and the Liver ([1]; 2 h) was 5.807 ± 1.708 % of injected dose per gram of tissue weight. For the same molecule, the Lung ([1]; 2 h) was 0.721 ± 0.210 % of injected dose per gram of tissue weight, the Muscle ([1]; 2 h) was 0.148 ± 0.039 % of injected dose per gram of tissue weight and the Spleen ([1]; 2 h) was 4.205 ± 1.374 % of injected dose per gram of tissue weight. The Stomach ([1]; 2 h) was 0.439 ± 0.138 % of injected dose per gram of tissue weight, the Thyroid ([1]; 2 h) was 0.665 ± 0.207 % of injected dose per gram of tissue weight and the Tumor ([1]; 2 h) was 0.415 ± 0.123 % of injected dose per gram of tissue weight. For the same molecule, the Tumor/Blood ([1]; 2 h) was 0.424 ± 0.022, the Tumor/Lung ([1]; 2 h) was 0.587 ± 0.046 and the Tumor/Muscle ([1]; 2 h) was 2.754 ± 0.120. The Blood ([1]; 4 h) was 0.787 ± 0.152 % of injected dose per gram of tissue weight, the Brain ([1]; 4 h) was 0.042 ± 0.006 % of injected dose per gram of tissue weight and the Heart ([1]; 4 h) was 0.318 ± 0.071 % of injected dose per gram of tissue weight. For the same molecule, the Intestine ([1]; 4 h) was 0.374 ± 0.073 % of injected dose per gram of tissue weight, the Kidney ([1]; 4 h) was 4.318 ± 0.890 % of injected dose per gram of tissue weight and the Liver ([1]; 4 h) was 6.656 ± 1.786 % of injected dose per gram of tissue weight. The Lung ([1]; 4 h) was 0.606 ± 0.128 % of injected dose per gram of tissue weight, the Muscle ([1]; 4 h) was 0.147 ± 0.022 % of injected dose per gram of tissue weight and the Spleen ([1]; 4 h) was 5.933 ± 3.194 % of injected dose per gram of tissue weight. The Stomach ([1]; 4 h) was 0.541 ± 0.119 % of injected dose per gram of tissue weight, the Thyroid ([1]; 4 h) was 0.692 ± 0.119 % of injected dose per gram of tissue weight and the Tumor ([1]; 4 h) was 0.414 ± 0.161 % of injected dose per gram of tissue weight. The Tumor/Blood ([1]; 4 h) was 0.502 ± 0.120, the Tumor/Lung ([1]; 4 h) was 0.640 ± 0.120 and the Tumor/Muscle ([1]; 4 h) was 2.795 ± 0.982. The “tumor-to-tissue ratios, ^99mTc-EC-DG versus 18F-FDG” value ([1]; A549 nude mice, iv) was “higher tumor/muscle and tumor/brain ratios as a function of time” and the “stability with or without transition chelators (gluconate and glucarate)” value [2] was “does not interfere with the stability”.
With `Cc1ccc(-c2cc(C(F)(F)F)nn2-c2ccc(S(=O)(=O)NC(=O)NCC(=O)NCCNC(=O)C3C[S][99Tc]45(=[O])[S]CC(C(=O)O)[N]4CC[N]35)cc2)cc1` (centres unmarked) [^99mTc-EC-celecoxib] the “tumor-to-tissue count density ratios” value ([3]; 0.5-4 hrs) was “increased tumor-to-tissue count density ratios as a function of time”, the “BONE & JOINT” value ([3]; 30 min) was 0.324 ± 0.036 % of injected dose per gram of tissue weight and the BONE/MUSCLE ([3]; 30 min) was 2.419 ± 0.225. The Blood ([3]; 30 min) was 2.293 ± 0.038 % of injected dose per gram of tissue weight, the Heart ([3]; 30 min) was 0.475 ± 0.025 % of injected dose per gram of tissue weight and the Intestine ([3]; 30 min) was 0.406 ± 0.039 % of injected dose per gram of tissue weight. For the same molecule, the Kidney ([3]; 30 min) was 4.963 ± 0.147 % of injected dose per gram of tissue weight, the Liver ([3]; 30 min) was 1.556 ± 0.046 % of injected dose per gram of tissue weight and the Lung ([3]; 30 min) was 1.033 ± 0.035 % of injected dose per gram of tissue weight. The Muscle ([3]; 30 min) was 0.133 ± 0.007 % of injected dose per gram of tissue weight, the Spleen ([3]; 30 min) was 0.594 ± 0.298 % of injected dose per gram of tissue weight and the Stomach ([3]; 30 min) was 0.370 ± 0.010 % of injected dose per gram of tissue weight. For the same molecule, the Thyroid ([3]; 30 min) was 0.784 ± 0.090 % of injected dose per gram of tissue weight, the Tumor ([3]; 30 min) was 0.587 ± 0.062 % of injected dose per gram of tissue weight and the Tumor/Blood ([3]; 30 min) was 0.255 ± 0.022. The Tumor/Muscle ([3]; 30 min) was 4.375 ± 0.304, the UTERUS ([3]; 30 min) was 0.595 ± 0.003 % of injected dose per gram of tissue weight and the UTERUS/BLOOD ([3]; 30 min) was 0.259 ± 0.003. The UTERUS/MUSCLE ([3]; 30 min) was 4.471 ± 0.257, the “BONE & JOINT” value ([3]; 2 h) was 0.190 ± 0.003 % of injected dose per gram of tissue weight and the BONE/MUSCLE ([3]; 2 h) was 3.058 ± 0.114. The Blood ([3]; 2 h) was 1.388 ± 0.063 % of injected dose per gram of tissue weight, the Heart ([3]; 2 h) was 0.283 ± 0.017 % of injected dose per gram of tissue weight and the Intestine ([3]; 2 h) was 0.276 ± 0.061 % of injected dose per gram of tissue weight. The Kidney ([3]; 2 h) was 6.088 ± 0.305 % of injected dose per gram of tissue weight, the Liver ([3]; 2 h) was 1.461 ± 0.049 % of injected dose per gram of tissue weight and the Lung ([3]; 2 h) was 0.712 ± 0.098 % of injected dose per gram of tissue weight. The Muscle ([3]; 2 h) was 0.062 ± 0.003 % of injected dose per gram of tissue weight, the Spleen ([3]; 2 h) was 0.965 ± 0.056 % of injected dose per gram of tissue weight and the Stomach ([3]; 2 h) was 0.187 ± 0.004 % of injected dose per gram of tissue weight. The Thyroid ([3]; 2 h) was 0.449 ± 0.015 % of injected dose per gram of tissue weight, the Tumor ([3]; 2 h) was 0.424 ± 0.019 % of injected dose per gram of tissue weight and the Tumor/Blood ([3]; 2 h) was 0.307 ± 0.018. The Tumor/Muscle ([3]; 2 h) was 6.876 ± 0.704, the UTERUS ([3]; 2 h) was 0.334 ± 0.034 % of injected dose per gram of tissue weight and the UTERUS/BLOOD ([3]; 2 h) was 0.240 ± 0.021. For the same molecule, the UTERUS/MUSCLE ([3]; 2 h) was 5.442 ± 0.852, the “BONE & JOINT” value ([3]; 4 h) was 0.178 ± 0.022 % of injected dose per gram of tissue weight and the BONE/MUSCLE ([3]; 4 h) was 4.314 ± 0.739. For the same molecule, the Blood ([3]; 4 h) was 1.031 ± 0.033 % of injected dose per gram of tissue weight, the Heart ([3]; 4 h) was 0.224 ± 0.004 % of injected dose per gram of tissue weight and the Intestine ([3]; 4 h) was 0.190 ± 0.006 % of injected dose per gram of tissue weight. The Kidney ([3]; 4 h) was 6.363 ± 0.260 % of injected dose per gram of tissue weight, the Liver ([3]; 4 h) was 1.506 ± 0.080 % of injected dose per gram of tissue weight and the Lung ([3]; 4 h) was 0.500 ± 0.011 % of injected dose per gram of tissue weight. For the same molecule, the Muscle ([3]; 4 h) was 0.002 ± 0.004 % of injected dose per gram of tissue weight, the Spleen ([3]; 4 h) was 0.981 ± 0.041 % of injected dose per gram of tissue weight and the Stomach ([3]; 4 h) was 0.139 ± 0.004 % of injected dose per gram of tissue weight. The Thyroid ([3]; 4 h) was 0.372 ± 0.021 % of injected dose per gram of tissue weight, the Tumor ([3]; 4 h) was 0.406 ± 0.004 % of injected dose per gram of tissue weight and the Tumor/Blood ([3]; 4 h) was 0.395 ± 0.014. The Tumor/Muscle ([3]; 4 h) was 9.715 ± 0.387, the UTERUS ([3]; 4 h) was 0.263 ± 0.005 % of injected dose per gram of tissue weight and the UTERUS/BLOOD ([3]; 4 h) was 0.255 ± 0.005. For the same molecule, the UTERUS/MUSCLE ([3]; 4 h) was 6.278 ± 0.199 and the “cellular uptake compared to ^99mTc-EC” value [4] was “significant increase in uptake”.
For “^99mTc-EC-LHRH (QHWSYGLRPG; also: 99mTc-ethylenedicysteine label, site not given here; UniProt P01148 24-33, looked up)”, the “cellular uptake compared to ^99mTc-EC” value [5] was “significant increased uptake”.
